This passage reports IC50 results from patent US11787810B2, “Diacylglyceride O-acyltransferase 2 inhibitors” (Merck Sharp & Dohme Corp., priority 2020, dated 2023).

For orientation: IC50 means the concentration needed to halve the response being measured.

The target in one assay is human DGAT2 (hDGAT2) (Homo sapiens (Human), UniProt Q96PD7). In words: DGAT2 enzymatic activity assay (13C18-triolein formation, LC/MS/MS). Format: biochemical. The following applies: hDGAT2 Sf-9 membrane prep, 25 μM diolein, 5 μM 13C oleoyl-CoA; read-out: Human DGAT2 IC50. As to the method: Sf-9 insect cells were maintained in Grace's insect cell culture medium with 10% heated-inactivated fetal bovine serum, 1% Pluronic F-68 and 0.14 μg/ml Kanamycine sulfate at 27° C. in a shaker incubator. After infection with untagged baculovirus expressing human DGAT2 (hDGAT2) at multiplicity of infection (MOI) 3 for 48 hours, cells were harvested. Cell pellets were suspended in buffer containing 10 mM Tris-HCl pH 7.5, 1 mM EDTA, 250 mM sucrose and Complete Protease Inhibitor Cocktail (Sigma Aldrich), and sonicated on ice. Cell debris were removed by centrifugation at 2000×g for 15 minutes. Membrane fractions were isolated by ultracentrifugation (100,000×g), resuspended in the same buffer, and frozen (−80° C.) for later use. The protein concentration was determined with the Pierce™ BCA Protein Assay Kit (Thermo Fisher Scientific). Expression of protein levels was analyzed by immunoblotting with rabbit anti-DGAT2 antibody (Abcam, ab102831) and donkey anti-rabbit IgG H&L Alexa Fluor® 647 (Abcam, ab150075) followed by detection using Typhoon FLA9000 (GE Healthcare).
Chain of human DGAT2 (hDGAT2) (Q96PD7 whole entry): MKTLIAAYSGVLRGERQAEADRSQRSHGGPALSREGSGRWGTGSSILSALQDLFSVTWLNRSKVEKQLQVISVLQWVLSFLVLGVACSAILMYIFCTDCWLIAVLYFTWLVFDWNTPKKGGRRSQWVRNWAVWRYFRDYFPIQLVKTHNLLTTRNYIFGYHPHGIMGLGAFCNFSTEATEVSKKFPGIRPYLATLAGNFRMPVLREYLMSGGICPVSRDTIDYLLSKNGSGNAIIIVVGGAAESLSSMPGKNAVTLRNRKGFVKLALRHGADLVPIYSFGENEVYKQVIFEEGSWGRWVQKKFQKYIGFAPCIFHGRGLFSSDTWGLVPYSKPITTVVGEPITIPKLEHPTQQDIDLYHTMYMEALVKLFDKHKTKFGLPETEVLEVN
LC/MS/MS analyses were performed using Thermal Fisher's LX4-TSQ Vantage system. This system consists of an Agilent binary high-performance liquid chromatography (HPLC) pumps and a TSQ Vantage triple quadrupole MS/MS instrument. For each sample, 2 μL samples from the top organic layer of in-plate liquid-liquid extraction were injected onto a Thermo Betabasic C4 column (2.1 mm×20 mm, 5 μm particle size). The samples were then eluted using the following conditions; mobile phase: Isopropanol:acetonitrile/10 mM ammonium formate=50/35/15 (v/v/v), flow rate: 0.8 mL/min, temperature: 25° C. Data was acquired in positive mode using a heated electrospray ionization (HESI) interface. The operational parameters for the TSQ Vantage MS/MS instrument were a spray voltage of 3000 V, capillary temperature of 280° C., vaporizer temperature 400° C., sheath gas 45 arbitrary unit, Aux gas 10 arbitrary units, S-lens 165 and collision gas 1.0 mTorr. […] (SRM) chromatograms of ^13C18-triolein (Q1: 920.8>Q3:621.3) and internal standard ^13C21-triolein (Q1: 923.8>Q3:617.3) were collected for 33 sec. The peak area was integrated by Xcalibur Quan software. The ratio between the ^13C18triolein generated in the reaction and spiked in internal standard ^13C21-triolein was used to generate percentage inhibition and IC50 values. Compound percentage inhibition was calculated by the following formula: Inhibition %=1-[(compound response−low control)/(high control−low control)]×100%. Potent compounds were titrated and IC50 were calculated by 4 parameter sigmoidal curve fitting formula.
DGAT2 activity was determined by measuring the amount of enzymatic product ^13C18-triolein (^13C-1,2,3-Tri(cis-9-octadecenoyl)glycerol) using the membrane prep mentioned above. The assay was carried out in ABgene 384-well assay plates in a final volume of 25 μL at rt. The assay mixture contained the following: assay buffer (100 mM Tris·Cl, pH 7.0, 20 mM MgCl2, 5% ethanol), 25 μM of diolein, 5 μM of ^13C oleoyl-CoA and 8 ng/μL of DGAT2 membrane.
Turning to `CC1(NC(=O)c2cnc3c(-c4cccc(OC(F)F)c4)nn(CC(O)C(F)(F)F)c3c2)CS(=O)(=O)C1` (single isomer, unassigned) [Example 67a, 3-(3-(difluoromethoxy)phenyl)-N-(3-methyl-1,1-dioxidothietan-3-yl)-1-(3,3,3-trifluoro-2-hydroxypropyl)-1H-pyrazolo[4,3-b]pyridine-6-carboxamide], the IC50 was 73 nM. Same read-out and setting: next, `CC(O)C(C)NC(=O)c1cnc2c(-c3cccc(OC(F)F)c3)nn(C(C)C)c2c1` (single isomer, unassigned) [Example 45b, 3-(3-(difluoromethoxy)phenyl)-N-(3-hydroxybutan-2-yl)-1-isopropyl-1H-pyrazolo[4,3-b]pyridine-6-carboxamide]: 520 nM; `CC1(C#N)CC(n2nc(-c3cccc(OC(F)F)c3)c3ncc(C(=O)NC4(C)CS(=O)(=O)C4)cc32)C1` (single isomer, unassigned) [Example 87b, 1-(3-cyano-3-methylcyclobutyl)-3-(3-(difluoromethoxy)phenyl)-N-(3-methyl-1,1-dioxidothietan-3-yl)-1H-pyrazolo[4,3-b]pyridine-6-carboxamide]: 270 nM. Still for that read-out and setting: the same measure for `CC(C)n1nc(-c2cccc(OC(F)F)c2)c2ncc(C(=O)NC(C)(C)C(C)O)cc21` (single isomer, unassigned) [Example 46b, 3-(3-(difluoromethoxy)phenyl)-N-(3-hydroxy-2-methylbutan-2-yl)-1-isopropyl-1H-pyrazolo[4,3-b]pyridine-6-carboxamide]: 13 nM. Turning to `CC1(NC(=O)c2cnc3c(-c4cccc(OC(F)F)c4)nn(C(C)(C)C(C)(C)O)c3c2)CS(=O)(=O)C1` [Example 129, 3-(3-(difluoromethoxy)phenyl)-1-(3-hydroxy-2,3-dimethylbutan-2-yl)-N-(3-methyl-1,1-dioxidothietan-3-yl)-1H-pyrazolo[4,3-b]pyridine-6-carboxamide], the IC50 worked out at 97 nM.

Take `CC(C)n1nc(-c2cccc(OC(F)F)c2)c2ncc(C(=O)NC3(C(C)O)CCOC3)cc21` (single isomer, unassigned) [Example 50b, 3-(3-(difluoromethoxy)phenyl)-N-(3-(1-hydroxyethyl)tetrahydrofuran-3-yl)-1-isopropyl-1H-pyrazolo[4,3-b]pyridine-6-carboxamide]: the IC50 is 31 nM. Still for that read-out and setting: the same measure for `C[C@]1(NC(=O)c2cnc3c(-c4cccc(OC(F)F)c4)cn(-c4ccc(F)cc4)c3c2)CCS(=O)(=O)C1` [Example 9, (S)-3-(3-(difluoromethoxy)phenyl)-1-(4-fluorophenyl)-N-(3-methyl-1,1-dioxidotetrahydrothiophen-3-yl)-1H-pyrrolo[3,2-b]pyridine-6-carboxamide]: 6.8 nM; for `N[C@H]1CCC[C@H]1NC(=O)c1cnc2c(-c3cccc(OC(F)F)c3)cn(-c3ncc(F)cn3)c2c1` [Example 20, N-((1R,2S)-2-aminocyclopentyl)-3-(3-(difluoromethoxy)phenyl)-1-(5-fluoropyrimidin-2-yl)-1H-pyrrolo[3,2-b]pyridine-6-carboxamide]: 189 nM. On to `CC1(NC(=O)c2cnc3c(-c4cccc(OC(F)F)c4)nn(CC(O)C(F)(F)F)c3c2)CS(=O)(=O)C1` (single isomer, unassigned) [Example 67b, 3-(3-(difluoromethoxy)phenyl)-N-(3-methyl-1,1-dioxidothietan-3-yl)-1-(3,3,3-trifluoro-2-hydroxypropyl)-1H-pyrazolo[4,3-b]pyridine-6-carboxamide], for which the IC50 is 90 nM. Consider `CC(O)C(C)NC(=O)c1cnc2c(-c3cccc(OC(F)F)c3)nn(C(C)C)c2c1` (single isomer, unassigned) [Example 45d, 3-(3-(difluoromethoxy)phenyl)-N-(3-hydroxybutan-2-yl)-1-isopropyl-1H-pyrazolo[4,3-b]pyridine-6-carboxamide], for which the IC50 was 2730 nM. As for `CC(O)C(C)n1nc(-c2cccc(OC(F)F)c2)c2ncc(C(=O)NC3(C)CS(=O)(=O)C3)cc21` (single isomer, unassigned) [Example 78d, 3-(3-(difluoromethoxy)phenyl)-1-(3-hydroxybutan-2-yl)-N-(3-methyl-1,1-dioxidothietan-3-yl)-1H-pyrazolo[4,3-b]pyridine-6-carboxamide], the IC50 came out at 47 nM. Regarding `CC1(NC(=O)c2cnc3c(-c4cccc(OC(F)F)c4)nn(C4CCOC(C(F)(F)F)C4)c3c2)CS(=O)(=O)C1` (single isomer, unassigned) [Example 76a, 3-(3-(difluoromethoxy)phenyl)-N-(3-methyl-1,1-dioxidothietan-3-yl)-1-(2-(trifluoromethyl)tetrahydro-2H-pyran-4-yl)-1H-pyrazolo[4,3-b]pyridine-6-carboxamide], the IC50 was determined as 21 nM. With `CC(C)n1nc(-c2cccc(OC(F)F)c2)c2ncc(C(=O)NC3(C(C)(C)O)CCOC3)cc21` (single isomer, unassigned) [Example 47a, 3-(3-(difluoromethoxy)phenyl)-N-(3-(2-hydroxypropan-2-yl)tetrahydrofuran-3-yl)-1-isopropyl-1H-pyrazolo[4,3-b]pyridine-6-carboxamide], the IC50 turned out to be 1410 nM. Regarding `CCC(C)n1nc(-c2cccc(OC(F)F)c2)c2ncc(C(=O)NC3(C)CS(=O)(=O)C3)cc21` (single isomer, unassigned) [Example 66a, 3-[3-(difluoromethoxy)phenyl]-N-(3-methyl-1,1-dioxo-thietan-3-yl)-1-sec-butyl-pyrazolo[4,3-b]pyridine-6-carboxamide], the IC50 was found to be 71 nM.

As to `C[C@]1(NC(=O)c2cnc3c(-c4cccc(OC(F)F)c4)nn(C4CCOC4)c3c2)CCS(=O)(=O)C1` (single isomer, unassigned) [Example 60a], the IC50 worked out at 600 nM.

The assay is the same for the next values; noted with them: table head without 'Human'; same membrane assay; read-out: DGAT2 IC50.
Turning to `CC(n1nc(-c2cc(OC(F)(F)F)ccc2F)c2ncc(C(=O)NC3(C)CS(=O)(=O)C3)cc21)C(C)(C)O` (single isomer, unassigned) [Example 132b, 3-(2-fluoro-5-(trifluoromethoxy)phenyl)-1-(3-hydroxy-3-methylbutan-2-yl)-N-(3-methyl-1,1-dioxidothietan-3-yl)-1H-pyrazolo[4,3-b]pyridine-6-carboxamide], the IC50 turned out to be 215 nM. The same measure, in the same setting: next, `CC(n1nc(-c2cccc(OC(F)F)c2)c2ncc(C(=O)NC3(C)CS(=O)(=O)C3)cc21)C(C)(C)O` (single isomer, unassigned) [Example 130b, 3-(3-(difluoromethoxy)phenyl)-1-(3-hydroxy-3-methylbutan-2-yl)-N-(3-methyl-1,1-dioxidothietan-3-yl)-1H-pyrazolo[4,3-b]pyridine-6-carboxamide]: 80 nM; `CC(n1nc(-c2cc(OC(F)F)ncc2F)c2cnc(C(=O)NC3(C)CS(=O)(=O)C3)cc21)C(C)(C)O` (single isomer, unassigned) [Example 133b, 3-(2-(difluoromethoxy)-5-fluoropyridin-4-yl)-1-(3-hydroxy-3-methylbutan-2-yl)-N-(3-methyl-1,1-dioxidothietan-3-yl)-1H-pyrazolo[4,3-c]pyridine-6-carboxamide]: 15 nM. On the same count and under the same terms, next, `CC(n1nc(-c2cc(OC(F)F)ncc2F)c2cnc(C(=O)NC3(C)CS(=O)(=O)C3)cc21)C(C)(C)O` (single isomer, unassigned) [Example 133a, 3-(2-(difluoromethoxy)-5-fluoropyridin-4-yl)-1-(3-hydroxy-3-methylbutan-2-yl)-N-(3-methyl-1,1-dioxidothietan-3-yl)-1H-pyrazolo[4,3-c]pyridine-6-carboxamide]: 862 nM.

Consider `CC(n1nc(-c2cc(OC(F)F)ccc2F)c2ncc(C(=O)NC3(C)CS(=O)(=O)C3)cc21)C(C)(C)O` (single isomer, unassigned) [Example 131b, 3-(5-(difluoromethoxy)-2-fluorophenyl)-1-(3-hydroxy-3-methylbutan-2-yl)-N-(3-methyl-1,1-dioxidothietan-3-yl)-1H-pyrazolo[4,3-b]pyridine-6-carboxamide], for which the IC50 amounted to 110 nM.
